Laboratory results as given in patent publication US20240287062A1, “NAPHTHYRIDONE COMPOUNDS FOR INHIBITION OF RAF KINASES AND/OR BCR-ABL TYROSINE KINASES” (Enliven Inc., priority 2021, published 2024).

Tests used:
[1] = test system: K562 cells; assay: K562 cell proliferation assay (CellTiter-Glo); assay type: cell-based; conditions: Homo sapiens; K562 cell line, 72 hours, cell viability
Method: K562 cells, cultured in Iscove's Modified Dulbecco's Media (IMDM) supplemented with 10% FBS, were harvested at 50-80% confluency and plated at 2,000 cells per well in 384-well tissue culture plates. A subset of wells contained media only (low control, LC). Compounds were serially diluted in DMSO. 40 nL of compound or DMSO only (high control, HC) were added to each well using an Echo 550 liquid handler (Labcyte). The plates were placed in a 37° C. incubator with 5% CO2 for 72 hours. Cell viability was measured using a CellTiter-Glo luminescent cell viability assay (Promega), which allows for relative quantification of metabolically active cells by luminescence-based measurements of intracellular ATP concentrations. Briefly, plates were removed from the incubator and equilibrated for 15 minutes at room temperature prior to the addition of 40 μL of CellTiter-Glo reagent. Plates were then incubated for 30 minutes at room temperature. Luminescence was measured using an EnSpire plate reader (Perkin Elmer). As noted above, luminescence values from wells with DMSO only or media without cells were used as high and low controls (HC and LC), respectively. Normalized percent viability was calculated as follows: percent viability=100×(LumSample−LumLC)/(LumHC−LumLC). IC50 values were calculated using the XLFit software.

[2] = target: ABL1 (Homo sapiens (Human), UniProt P00519); assay: Luminescence-based ABL kinase assay (Km ATP), ADP-Glo; assay type: biochemical; conditions: measured using the Abl1 Km assay, read-out: IC50 (nM), value inside parentheses
Method: (§1) Kinase activity of ABL1 was measured using the ADP-Glo system (Promega), which measures formation of ADP using a luminescence-based method. Compounds were serially diluted in DMSO. 20 nL of compound or DMSO only (high control, HC) were added to a 384-well plate (OptiPlate-384, PerkinElmer) using an Echo550 liquid handler (Labcyte). 15 μL of kinase solution (10 mM MgCl2, 0.01% Brij-35, 2 mM DTT, 0.05% BSA, 1 mM EGTA, 50 mM HEPES pH 7.5, and 3.325 nM ABL1 [Carna Biosciences]) were added to each well of the 384-well plate containing the compounds. No enzyme control wells were included (low control, LC). The plate was incubated at room temperature for 30 minutes. 5 μL of a second solution containing 10 mM MgCl2, 0.01% Brij-35, 2 mM DTT, 0.05% BSA, 1 mM EGTA, 50 mM HEPES pH 7.5, 6 μM Peptide 2 (Perkin Elmer, Cat No 760346), and 40 μM ATP were added to each well to start the kinase reaction. The plate was incubated for 90 minutes at room temperature. 20 μL of ADP-Glo reagent (Promega) were then added to each well and the plate was incubated for 40 minutes at room temperature. 40 μL of kinase detection reagent (Promega) was added to each well and the plate was incubated for an additional 45 minutes at room temperature. During this step, ADP was converted to ATP, a substrate for luciferase, to produce luminescence signal. Luminescence was measured on an Envision plate reader (Perkin Elmer). Luminescence signal positively correlates with kinase activity. The percent kinase activity was calculated as follows: percent kinase activity=100×(LumSample−LumLC)/(LumHC−LumLC). As noted above, DMSO only and no enzyme wells were used as high and low controls, respectively. IC50 values were calculated using the XLFit software.

[3] = target: ABL1 (T315I) (Homo sapiens (Human), UniProt P00519, T315I); assay: as above; assay type: biochemical; conditions: measured using the Abl1 Km assay, read-out: IC50 (nM), value inside parentheses
Method: as §1

[4] = test system: HepG2 (NRAS Q61L); assay: Cell viability assay (CellTiter Glo); assay type: cell-based; conditions: Homo sapiens, HepG2, 120 h, HepG2, 750 cells per well, read-out: BRAF Cytotoxicity (IC50, nM) HEPG2
Method: Cell viability was measured in the following MAPK pathway mutant cancer cell lines: A375 (BRAF V600E), HepG2 (NRAS Q61L), SK-MEL-30 (NRAS Q61K), and OCI-AML-2 (MBNL1-CRAF fusion). Cell viability was also measured in K562 cells.
A375, HepG2, SK-MEL-30 and OCI-AML-2 cells were grown in the appropriate growth medium as described in Table B2 below, and harvested at 50-80% confluence. Cells were counted and seeded at their appropriate density (see Table B1) in a 384-well plate (Corning 3570). A375, HepG2 and SK-MEL-30 were allowed to adhere overnight prior to treatment and the OCI-AML-2 were treated immediately for the indicated drug treatment times (Table 6).
Table 6 provides the growth media, number of cells seeded per well and drug treatment times for the each cell line. K562 cells were grown as described in Example B1 above.
Compounds were dissolved in DMSO and serially diluted. Serially-diluted compound or a DMSO only control (high control, “HC”) was added to the plated cells in each well. Compounds were tested at concentrations of about 10 μM to 0.51 nM, using three-fold dilutions. The final proportion of DMSO never exceeded 0.1%.
Plates were placed in a 37° C., […] incubator for the indicated treatment times (Table B1). Plates were then removed from the incubator and equilibrated for 15 minutes at room temperature. 40 μl of CellTiter Glo reagent (Promega) was added to measure the relative level of metabolically active cells by quantifying intracellular ATP concentrations. Plates were incubated for 30 minutes at room temperature, and luminescence was measured. Percent viability was normalized to a vehicle control only using the following formula: 0 viability=100×(LumSample−LumLC)/(LumHC−LumLC). Graphical curves were fitted using a nonlinear regression model with a sigmoidal dose response.

| Compound | IC50 [1] [nM] | IC50 [2] [nM] | IC50 [3] [nM] | IC50 [4] [nM] |
| --- | --- | --- | --- | --- |
| Cc1c(F)cncc1-c1cc2cnc(NC(=O)C3CC3)cc2n(C)c1=O [Compound 2, N-[3-(5-fluoro-4-methylpyridin-3-yl)-1-methyl-2-oxo-1,6-naphthyridin-7-yl]cyclopropanecarboxamide] | 28 | 1.8 | 680 | 334 |
| Cc1c(F)cncc1-c1cc2cnc(NC(=O)[C@@H]3C[C@@H]3F)cc2n(C)c1=O [Compound 28, (1S,2S)-2-fluoro-N-[3-(5-fluoro-4-methylpyridin-3-yl)-1-methyl-2-oxo-1,6-naphthyridin-7-yl]cyclopropane-1-carboxamide] | 47 | 2.2 | 1500 | 496 |
